What was measured:
[1] = system: patulous Eustachian tube syndrome; assay: Selected case studies: nose drops in patients with patulous / semi-patulous Eustachian tube syndrome; assay type: in vivo, human
Protocol: In an exemplary first administration protocol, the composition is administered in the form of nose drops, the patient sniffs them through the ipsilateral nostril on the side of the symptomatic ear affected with the disorder. The number of drops administered can be titrated to the needs of the individual patient. The patient can sniff from two to four drops of the solution, and the drops are sniffed back into the nostril so as to deliver the medication to the Eustachian tube opening in the back of the nose. Administration of the drops may be repeated again in four to six hours. As desired, the daily dose maybe increased to 4 drops per administration.
An exemplary nasal drop administration protocol has been developed for the first exemplary embodiment. To achieve normal closure of the lumen, 2-6 drops of the nasal supplement solution are applied to the stoma or opening of the Eustachian tube. It may take two weeks before changes in symptoms become apparent.
Referring to the illustrations in FIGS. 1 and 2 for reference, after the patient been up for a period of time, symptoms begin as the tubal tissues lose fluid and the lumen increases. When the patient feels the symptom of autophony is about to occur, gently blowing the nose to clear any mucous is accomplished.
With the patient 10 lying with head 12 between 45 to 60 degrees above horizontal. This places the Eustachian tube stoma (opening) lower than the nostril 16. Gravity will allow the drops to flow to the back of the nose. Sniffing will draw the drops further info the nasal passage to the Eustachian tube before the semi-permiable membrane lining of the nasal passage can absorb them. Alternatively while sitting in a chair, the head is tilted back at approximately 45 degrees and then tilted toward the affected ear to place it almost below the nose.
For nasal administration, to instill the drops, put the dropper tip one-quarter inch (¼″) into the lower nostril (affected side), closest to the symptomatic ear.
Instill 2-4 drops depending on individual anatomy. Sniffing briskly to draws the drops back approximately three inches (3″) to the location of the tube opening where they will be absorbed. The patient may feel a brief burning or stinging sensation when the drops are administered properly to stimulate the closure of the stoma of the tube. The patient then remains lying down in the administering position for ten (10) seconds.

[2] = system: otitis media / middle ear infection; assay: Case studies: treatment of otitis media, otitis media with effusion and middle ear infection; assay type: in vivo, human
Protocol: Modification of the composition and methods of treatment for otitis media (OM) and otitis media with effusion (OME) due to inflammatory disease of the middle ear epithelium, structures and specialized membranous tissues is described below. The inflammatory diseases of the middle ear and biofilm are treated herein treated by the following methods. The composition is preferably delivered through the natural opening at the nasopharyngeal orifice of the eustachian tube leading to the middle ear chamber. If this is not possible, a needle or myringotomy incision in made in the tympanic membrane (ear drum) via the external ear canal for the delivery of the embodiment, with or without a device, into the middle ear to chamber. The chamber is irrigated and the biofilm flushed by the exemplary embodiment of the composition delivered as described above.
In otitis media, the solution is topically applied to the Eustachian Tube mucosa in appropriate dosage forms for administration or delivered to the middle ear chamber by delivery through the stoma of the Eustachian Tube in the form of nasal drops, spray, aerosol, rinse, douche or gel. The delivery system may include the modified Politzer technique or catheter insufflation of the middle ear.
If the middle ear chamber is not easily accessible through its natural eustachian tubal stoma, the chamber can be reached directly by surgically penetrating or making an incision in the tympanic membrane of the lateral wall of the middle ear, as in a myringotomy.
In this way, the contaminated middle ear fluid, micro-organisms and biofilm adhesins seen in OME may be degraded and removed by a paracentesis (needle)or myringotomy (scalpel) incision of the tympanic membrane with aspiration of the fluid, under direct visualization. The middle ear fluids and debris are degraded and flushed out by rinsing with the composition of the exemplary embodiment delivered through the acquired opening into the middle ear chamber, in the form of nasal drops, spray, aerosol, rinse, douche, irrigation or gel. The composition, L-Ascorbic acid, in about 4% to 10% wt/vol in an aqueous solution, is employed through a surgically made incision or acquired defect in the tympanic membrane of the middle ear for the optimal characteristics or effects to reestablish Eustachian luminal patency, restore the rheologic properties of the membranous lining, to breakdown and eliminate the contained microorganisms, biofilm or abiotic toxins adhering to the membranes and coating any implanted device in the middle ear, to normalize surface tension and passive closing pressure, facilitating mucociliary clearance through the restored Eustachian tube orifice into the nasopharynx. The products are then swallowed and arrive in the stomach, where the endogenous enzymes and HCL of the stomach inactivate and digest and any residual microorganisms or proteinaceous products.
If a tympanic membrane rupture has occurred, as a complication or from specific trauma, the method of the delivery of the exemplary embodiment is modified for the maximum therapeutic effect of supporting healing of the damaged tympanic membrane. This is accomplished by the application of solid, porous or absorbable implanted devices or sculptured to the anatomical defect of the tympanic membrane and implanted under direct visualization employing a surgical microscope. A non-porous device or tube may be implanted for the delivery of the novel embodiment. The implanted device serves as a conduit through which the embodiment is administered via the external ear canal on a scheduled program for continuous availability of the composition of the exemplary embodiment to support tissue healing by pre-collagen formation and re-epithelization cardinal to middle ear functions.

[3] = Example A: child, 5% in aqueous saline, topical to nasal mucosa, one month after recovery from upper respiratory infection
[4] = Example C: person, 5% wt/vol aqueous solution on porous implanted device, daily, after three months

**Q.** How did the adverse side effects ([1]; Example I: person, three drops, 15% wt/vol in distilled water, nose drops) turn out when `O=C1O[C@H]([C@@H](O)CO)C(O)=C1O` [L-Ascorbic acid] was run?
**A.** Its adverse side effects is “no adverse side effects were noted”.

**Q.** What about the “patulous Eustachian tube syndrome (autophony)” value ([1]; Example I: person, three drops, 15% wt/vol in distilled water, sniffed into ipsilateral nostril, repeated six hours later) of the same molecule?
**A.** Its value is “completely relieved”.

**Q.** And the “autophony symptom of an Incompetent Eustachian Tube” value ([1]; Example II: person, unilateral semi-patulous Eustachian tube syndrome, 20% wt/vol aqueous solution, pH 2.0, 2-4 drops per treatment)?
**A.** The value was “receded completely”.

**Q.** What about the adverse side effects ([1]; Example II: person, 20% wt/vol aqueous solution, pH 2.0, 2-4 drops) of the same molecule?
**A.** The adverse side effects was “no adverse side effects”.

**Q.** And the “carcinogenic effect from daily administration of nose drops” value ([1]; Example IV: person after nasopharyngeal carcinoma resection, 15% wt/vol aqueous solution, pH 2.1, daily over several years)?
**A.** The value was “no carcinogenic effect”.

**Q.** What about the “cytology studies of the right Eustachian tube area” value ([1]; Example IV: person, 15% wt/vol aqueous solution, pH 2.1, daily for several years) of the same molecule?
**A.** Its value is “free of cancer”.

**Q.** What about the “relief of PET symptoms” value ([1]; inventor (JD) as subject, two drops, 15% wt/vol. in distilled water, as needed, after one month) of the same molecule?
**A.** The value was “complete symptomatic relief”.

**Q.** And the middle ear pressure ([2]; Example A: child, bilateral negative middle ear pressure, 5% in aqueous saline solution, nasal spray, over the next month)?
**A.** Its middle ear pressure is “within normal limits”.

**Q.** And the “Eustachian Tube function” value [2, 3]?
**A.** The value was “normal”.

**Q.** What about the “middle ear infection or fluid on examination” value [2, 3] of the same molecule?
**A.** Its value is “no evidence of any middle ear infection or fluid”.

**Q.** And the signs of infection ([2]; Example B: person, Corynebacterium, 5% wt/vol in physiologic saline, two times a day)?
**A.** Its signs of infection is “no further signs of infection”.

**Q.** What about the middle ear drainage ([2]; Example B: person, right middle ear infection (Corynebacterium), 5% wt/vol in physiologic saline, trans canal through the perforation, two times a day, in five days) of the same molecule?
**A.** The middle ear drainage was “completely eliminated”.

**Q.** And the “mastoid / middle ear drainage” value ([2]; Example C: person, chronic right mastoiditis, total tympanic membrane perforation, 5% wt/vol aqueous solution on porous implanted device, daily, after three months)?
**A.** Its value is “ceased”.

**Q.** And the infection [2, 4]?
**A.** Its infection is “free of infection”.

**Q.** And the right eardrum perforation [2, 4]?
**A.** Its right eardrum perforation is “healed closed”.

**Q.** And the hearing ([2]; Example III: child, chronic otitis media with effusion, 4% wt/vol in physiologic saline, metered nasal spray after politzerization, after two weeks)?
**A.** The hearing was “hearing was restored”.

**Q.** What about the adverse side effects ([2]; Example III: child, 4% wt/vol in physiologic saline, metered nasal spray) of the same molecule?
**A.** The adverse side effects was “no adverse side effects”.
